Measured values published in US20250281621A1, “GPC3 APTAMERS AND VARIANTS AND USE THEREOF” (Guardian Therapeutics, LLC, priority 2020, published 2025).
Structures can show the parent of a compound that is named as a salt. Where two headings read alike, the source gives them in different places.

What was measured:
[1] = Melting curve analysis (thermofluorimetric analysis); format: physicochemical; conditions: compared to original clone F14, #Min4 and #Min5
Description: (§1) Binding of aptamer variants to GPC3 was tested with melting curve analysis (thermofluorimetric analysis). The control of experiment was carried out similarly with GPC3^− HEK293 cells.

GPC3 [2] = target: T1, GPC3 (Homo sapiens, UniProt P51654); assay: Binding kinetics of top minimers (Ka, Kd, KD)
Excerpt: (§2) The best minimer, GRX46, as well as combinations of variants with top activities were selected for further evaluation (Table 6).

GPC3 [3] = target: T1, GPC3; assay: GPC3 binding via flow cytometry using GPC3+ HEK293 cells; parameters: expressed in transfected cells; host or cells: engineered HEK293 cells overexpressing GPC3; conditions: for Kd: flow cytometry using GPC3+ HEK293 cells; for GPC3 binding activity (MFI): GPC3^+ HEK293 cells
Description: (§3) Two independent SELEX selections were carried to select clones that specifically bind to GPC3. Seven to nine rounds of nitrocellullose filter SELEX (Jhaveri et al., In vitro selection of RNA aptamers to a protein target by filter immobilization. Curr Protoc Nucleic Acid Chem. 2001, Chapter 9: Unit 9.3. doi: 10.1002/0471142700.nc0903s00. PMID: 18428881) were preformed using recombinant GPC3 protein. DNA clones from the final rounds of SELEX were sent for next generation sequencing and the data were analyzed for abundance. The highest abundant sequences (clones) were made via chemical synthesis and used in screening. The clones were screened for GPC3 binding via flow cytometry using engineered HEK293 cells overexpressing GPC3 (GPC3+ HEK293).
Additional variants surrounding the core motif were made in which stem 2 (as depicted in FIG. 1) is extended by 1 or 2 additional base pairs (GRX1187 and GRX2101 respectively) or replaced with an alternative stem and loop sequence (GRX958). Additionally, a construct was designed in which stem 2 is closed with a 4 base loop and stem 1 is open creating a new 5′ and 3′ end, GRX2102. […] (Table 7)

[4] = target: T2, endogenously expressed GPC3 (Homo sapiens, UniProt P51654); assay: Binding to cancer cells endogenously expressing GPC3 (Hep3B, HepG2, NCI-H446, Huh7); conditions: data not shown; for need of refolding for maximal activity: binding to Hep3B cells
T2 construct: endogenously expressed GPC3 on different cancer cells; endogenous in cells; host or cells: Hep3B, HepG2, NCI-H446, Huh7
Excerpt: Human hepatocellular Carcinoma cells HepG2 and Hep 3B overexpressing GPC3 were used to test the affinity of the selected positive clones. The binding studies indicate that several selected aptamer candidates (Table 3) from both libraries can bind human hepatocellular Carcinoma cells with high affinity.
A pool of partial randomization sequences from GRX8 was created and selected by cell-SELEX using GPC3^+ HEK293 cells. Those variants comprise various changes to the structural elements of GRX8, including changes to the external loop, stack, helix, hairpin loop and stem, etc. The clones were further screened with Hep3B cells and minimized based on original structure. The minimer #Min9 was further randomly mutagenized for sequence changes that can improve the binding affinity to GPC3. Another minimer variant (ID No.: GRX46)
with increased activity was further tested.

GPC3^− HEK293 cells = assay: Flow cytometry binding control with GPC3− HEK293 cells
Description: as §3, §1

Hep3B xenograft [5] = conditions: 30 mg/kg, oral, QD 28 days
GPC3 [6] = target: T1, GPC3; assay: Binding activity of minimers incl. refolding and freeze/thaw tests
Excerpt: When the lineal GRX8 sequence is refolded, the binding activity of GRX8 improves.
as §2

Hep3B xenograft [7] = assay: GRX26 in Hep3B xenograft mouse model; conditions: 28 Days; for Relative tumor volume growth (Day 28): vehicle = 1.00
Description: (SEQ ID NO.: 32) (ID NO. #GRX26). GRX26 was tested in Hep3B xenograft mouse model for its activity in vivo (Table 8).

Hep3B xenograft [8] = system: Hep3B xenograft
Hep3B xenograft [9] = system: Hep3B xenograft; remark: listed apart in the source
Glypican-3 (GPC3) [10] = target: T3, Glypican-3 (GPC3) (UniProt P51654;P51654 P51654:25-358,P51654:359-554); assay: assay and GPC3 source not stated; fusion does not affect GPC3 binding; conditions: tags: recombinant GPC3 used for SELEX; source inferred for kinetic assay
Glypican-3 (GPC3) [11] = target: T3, Glypican-3 (GPC3); assay: flow; GPC3+ HEK293 cells; conditions: tags: overexpressed in engineered HEK293 cells (GPC3+ HEK293)
[12] = 5 mg/kg, IP, QD/7Days, vehicle = 1.00

CGTCGTCGGGTTGCTACCCAAGGACAAGAGTCGACGACG (listed as DNA, chemistry not fully specified) [Min9.2, 33]
thermal stability [1]: thermally more stable

CGUCAUCGGGUUGCUACCCAAGGCCAGGAGGCGAUGACG (listed as RNA, chemistry not fully specified) [GRX49, 25]
Ka (GPC3 [2]): 199000 M⁻¹ s⁻¹ | Kd (GPC3 [3]): 9 nM | binding to endogenously expressed GPC3 on cancer cells ([4]; Hep3B, HepG2, NCI-H446, Huh7): selectively bind | need of refolding for maximal activity [4]: do not require refolding for maximal activity

CGUCAUCGGGUUGCUACCCAAGGUCAGGAGACGAUGACG (listed as RNA, chemistry not given here) [GRX8 with triple]
Ka (GPC3 [2]): 112000 M⁻¹ s⁻¹ | need of refolding for maximal activity [4]: do not require refolding for maximal activity

AAGCCATTACCGGGTTGCTACCCGAGGACAAGAGTCGATGATGCTT (listed as DNA, chemistry not fully specified) [Min3, 28]
GPC3 binding activity (MFI) (GPC3 [3]): 377 | GPC3 binding activity (MFI) (GPC3^− HEK293 cells): 444

CNC(=O)c1cc(Oc2ccc(NC(=O)Nc3ccc(Cl)c(C(F)(F)F)c3)cc2)ccn1 [Sorafenib Tosylate]
% of body weight loss (Day 28) (Hep3B xenograft [5]): 9.33%

CGUCAUCGGGUUGCUACCCAAGGUCAGGUGACGAUGACG (listed as RNA, chemistry not given here) [GRX8 with QUAD6]
Ka (GPC3 [2]): 201000 M⁻¹ s⁻¹ | need of refolding for maximal activity [4]: do not require refolding for maximal activity

CGGGAGUCCUAGGAAGGACGGGUUGCUACCCAAGUCCCG (listed as RNA, chemistry not fully specified) [GRX2102, 79]
Kd (GPC3 [3]): 26.9 nM

AAGCCATTATCGGGTTGCTACCCAAGGACAAGAGTCGATGATGCTT (listed as DNA, chemistry not fully specified) [Min4, 29]
binding activity to GPC3^+ HEK293 cells compared to full sequence of clone F14 (GPC3 [3]): significantly increased | GPC3 binding activity (MFI) (GPC3 [3]): 23261 | GPC3 binding activity (MFI) (GPC3^− HEK293 cells): 1072

GACUAGAUCGGGUUGCUACCCAAGCUCCGGUUCAGAUCGAUGGAGGAUCUAGUC (listed as RNA, chemistry not fully specified) [GRX958, 76]
Kd (GPC3 [3]): 33.1 nM

CGUCAUCGGGUUGCUACCCAAGGCCCAGGAGGGCGAUGACG (listed as RNA, chemistry not given here) [GRX1187, 77]
Kd (GPC3 [3]): 64.2 nM

CGUCAUCGGGUUGCUACCCAAGGACAAGAGUCGAUGACG (RNA aptamer, any chemical modification not given here, further chemistry not given here) [GRX8]
binding activity when the lineal sequence is refolded (GPC3 [6]): improves | binding affinity to exogenously expressed GPC3 (GPC3 [6]; FIG. 2): high binding affinity | stability of activity in freeze/thaw tests (GPC3 [6]; frequent freeze/thaw): stable and not affected by the frequent freeze/thaw tests | Ka (GPC3 [2]): 61900 M⁻¹ s⁻¹

DM1-CGTCATCGGGTTGCTACCCAAGGACAAGAGTCGATGACG [GRX26]
% of body weight loss (Hep3B xenograft [7]; 2.5 mg/kg): 10.67% | Relative tumor volume growth (Day 28) (Hep3B xenograft [7]; 2.5 mg/kg): 0.69 | % of body weight loss (Hep3B xenograft [7]; 10 mg/kg, IP/QD): 14.86% | Relative tumor volume growth (Day 28) (Hep3B xenograft [7]; 10 mg/kg, IP/QD): 0.46

CGUCAUCGGGUUGCUACCCAAGGUCAAGAGACGAUGACG (listed as RNA, chemistry not fully specified) [GRX46]
binding activity and refolding behavior relative to GRX8 (GPC3 [6]; data not shown): similar, enhanced binding activity | Ka (GPC3 [2]): 55400 M⁻¹ s⁻¹

AAGCCATTACCGGGTTGCTACCCAAGGACAAGAGTCGATGATGCTT (listed as DNA, chemistry not fully specified) [Min1, 26]
binding activity to GPC3^+ HEK293 cells compared to full sequence of clone F14 (GPC3 [3]): significantly increased | GPC3 binding activity (MFI) (GPC3 [3]): 11403 | GPC3 binding activity (MFI) (GPC3^− HEK293 cells): 579

CATTATCGGGTTGCTACCCGAGGACAAGAGTCGATGATG (listed as DNA, chemistry not fully specified) [Min6, 31]
GPC3 binding activity (MFI) (GPC3 [3]): 3619 | GPC3 binding activity (MFI) (GPC3^− HEK293 cells): 507

GGCATCGGGTTGCTACCCAAGGACAAGAGTCGATGCC (listed as DNA, chemistry not fully specified) [Min11, 34]
thermal stability [1]: thermally more stable

TCGTCGTTTTGTCGTTTTGTCGTT [CpG]
Relative tumor volume growth (Day 7) (Hep3B xenograft [8]; [12]): 0.57 | Relative tumor volume growth (Day 18) (Hep3B xenograft [8]; [12]): 0.47 | final immune: tumor cell ratio relative to the vehicle control (Hep3B xenograft [8]; 7-day on/7-day off daily dosing schedule): 1.51±0.95

CATTATCGGGTTGCTACCCAAGGACAAGAGTCGATGATG (listed as DNA, chemistry not fully specified) [Min5, 30]
binding activity to GPC3^+ HEK293 cells compared to full sequence of clone F14 (GPC3 [3]): significantly increased | GPC3 binding activity (MFI) (GPC3 [3]): 19484 | GPC3 binding activity (MFI) (GPC3^− HEK293 cells): 946

Keytruda: the PD-1R inhibitor Keytruda
% of body weight loss (Hep3B xenograft [9]; 10 mg/kg): 3.66% | reduction of tumor size (Hep3B xenograft [9]; 10 mg/kg once every 3 days i.p., 11 days): 18% | Relative tumor volume growth (Day 11) (Hep3B xenograft [9]; 10 mg/kg, vehicle = 1.00): 0.82

CGTCATCGGGTTGCTACCCAAGGACAAGAGTCGATGACG (listed as DNA, chemistry not fully specified) [Min9, 32]
thermal stability [1]: thermally more stable

CGUCAUCGGGUUGCUACCCAAGGCACCAGGAGGUGCGAUGACG (listed as RNA, chemistry not given here) [GRX2101, 78]
Kd (GPC3 [3]): 29.3 nM

AAGCATTACCGGGTTGCTACCCAAGGACAAGAGTCGATGATGCTT (listed as DNA, chemistry not fully specified) [Min2, 27]
binding activity to GPC3^+ HEK293 cells compared to full sequence of clone F14 (GPC3 [3]): significantly increased | GPC3 binding activity (MFI) (GPC3 [3]): 16652 | GPC3 binding activity (MFI) (GPC3^− HEK293 cells): 720

B1: GRX51 (CpG7909-GRX49 fusion) (mixed)
mixed: TCGTCGTTTTGTCGTTTTGTCGTTCGUCAUCGGGUUGCUACCCAAGGCCAGGAGGCGAUGACG
modifications: PS DNA CpG7909 portion, 2'-OMe aptamer portion
IC50 (Glypican-3 (GPC3) [10]): 32.7 nM

B2: GRX958 (ssRNA)
RNA: GACUAGAUCGGGUUGCUACCCAAGCUCCGGUUCAGAUCGAUGGAGGAUCUAGUC
modifications: fully 2'-OMe
Kd (Glypican-3 (GPC3) [11]; stem 2 replaced with alternative stem and loop): 33.1 nM

B3: GRX1187 (ssRNA)
RNA: CGUCAUCGGGUUGCUACCCAAGGCCCAGGAGGGCGAUGACG
modifications: fully 2'-OMe
Kd (Glypican-3 (GPC3) [11]; stem 2 extended by 1 bp): 64.2 nM

B4: GRX2101 (ssRNA)
RNA: CGUCAUCGGGUUGCUACCCAAGGCACCAGGAGGUGCGAUGACG
modifications: fully 2'-OMe
Kd (Glypican-3 (GPC3) [11]; stem 2 extended by 2 bp): 29.3 nM

B5: GRX2102 (ssRNA)
RNA: CGGGAGUCCUAGGAAGGACGGGUUGCUACCCAAGUCCCG
modifications: fully 2'-OMe
Kd (Glypican-3 (GPC3) [11]; stem 2 closed with 4-base loop, stem 1 open (new 5' and 3' ends)): 26.9 nM

B6: GGGAGACAAGAATAAAGCGAGTTTGAAGCCATTACCGGGTTGCTACCCAAGGACAAGAGTCGATGATGCTTAGCTAG (nucleic acid)
chain: GGGAGACAAGAATAAAGCGAGTTTGAAGCCATTACCGGGTTGCTACCCAAGGACAAGAGTCGATGATGCTTAGCTAG
modifications: listed as DNA, chemistry not fully specified
notes: 12
GPC3 binding activity (MFI) (GPC3 [3]): 5050 | GPC3 binding activity (MFI) (GPC3^− HEK293 cells): 1040
